Data on one compound can be found in US20250281499A1, “FUSED AMINO PYRIMIDINE COMPOUNDS FOR TREATMENT OF NEUROPATHIC AND NEURO-INFLAMMATORY PAIN” (Ovid Therapeutics Inc., priority 2024, published 2025).

The structures appear in SMILES notation. Bounds are passed on as bounds.

For assay [1], the system named is panel of 144 protein kinases. Description: Protein kinase panel (SelectScreen; Thermofisher). The assay is classed as biochemical. Particulars: 144 protein kinases incl. PKC isoforms, OSR1, SPAK, WNK. Here is the method: Aliquots of HEK-293 cells expressing, KCC2 were exposed to 30 μM SSA, heated from 37-55° C. The remaining level of soluble native KCC2 at each temperature was measured by immunoblotting and normalized to the level seen at 37° C. which was given a value of 1. […] This panel included protein kinase C isoforms, OSR1, SPAK (STK39) and with-no-lysine kinases (WNK), all of which phosphorylate KCC2 on multiple residues to indirectly modify its activity (Kahle et al., 2013, supra; Smalley et al., 2020, supra).

Assay [2] concerns 18-20 Div hippocampal neurons. Description: Gramicidin perforated patch-clamp, EGABA in hippocampal neurons. The assay is classed as cell-based, Sprague Dawley. Particulars: 300 nM. Here is the method: Neuronal Cultures. Hippocampal neurons were prepared from Sprague Dawley E18 embryos and plated at 450,000 per dish and maintained at 37° C. in a humidified 5% CO2 incubator for 10-25 days before experimentation (Lee et al., Nat. Neurosci. 14, 736-743 (2011)).
At this developmental stage, GABAAR receptor activation leads to hyperpolarization, a phenomenon critically dependent upon KCC2 (Kontou et al., J Biol Chem, 100364 (2021)).
Neuronal Patch clamp assays. Neuronal cell culture recordings were performed in bath saline at 34° C. For gramicidin perforated-patch experiments, pipettes contained (in mM): 140 KCl and 10 HEPES, pH 7.4 KOH. For whole-cell experiments, pipettes contained (in mM): 115 K-meth-SO4, 30 KCl, 2 Mg-ATP, 4 Na-ATP, 0.4 Na-GTP, and 10 HEPES, pH 7.4 KOH. Bath saline contained the following (in mM): 140 NaCl, 2.5 KCl, 2.5 CaCl2, 2.5 MgCl2, 10 HEPES, and 11 glucose, pH 7.4 NaOH (Kontou et al., 2021, supra). All compound solutions were applied to cells using a three-barreled 700 μm pipe positioned just above the cell (Warner Instruments). […] All voltages from whole-cell experiments were corrected offline using a calculated liquid junction potential value (13.6 mV) in Clampex (Molecular Devices). For gramicidin perforated-patch experiments, intracellular Cl^− values were back-calculated using measured EGABA values and the Nernst equation: […]

The target of the next assay is T1, KCC4 (Homo sapiens, UniProt Q9Y666).
T1 construct: expressed in transfected cells; host or cells: HEK-293
T1 sequence (Q9Y666 1-1083): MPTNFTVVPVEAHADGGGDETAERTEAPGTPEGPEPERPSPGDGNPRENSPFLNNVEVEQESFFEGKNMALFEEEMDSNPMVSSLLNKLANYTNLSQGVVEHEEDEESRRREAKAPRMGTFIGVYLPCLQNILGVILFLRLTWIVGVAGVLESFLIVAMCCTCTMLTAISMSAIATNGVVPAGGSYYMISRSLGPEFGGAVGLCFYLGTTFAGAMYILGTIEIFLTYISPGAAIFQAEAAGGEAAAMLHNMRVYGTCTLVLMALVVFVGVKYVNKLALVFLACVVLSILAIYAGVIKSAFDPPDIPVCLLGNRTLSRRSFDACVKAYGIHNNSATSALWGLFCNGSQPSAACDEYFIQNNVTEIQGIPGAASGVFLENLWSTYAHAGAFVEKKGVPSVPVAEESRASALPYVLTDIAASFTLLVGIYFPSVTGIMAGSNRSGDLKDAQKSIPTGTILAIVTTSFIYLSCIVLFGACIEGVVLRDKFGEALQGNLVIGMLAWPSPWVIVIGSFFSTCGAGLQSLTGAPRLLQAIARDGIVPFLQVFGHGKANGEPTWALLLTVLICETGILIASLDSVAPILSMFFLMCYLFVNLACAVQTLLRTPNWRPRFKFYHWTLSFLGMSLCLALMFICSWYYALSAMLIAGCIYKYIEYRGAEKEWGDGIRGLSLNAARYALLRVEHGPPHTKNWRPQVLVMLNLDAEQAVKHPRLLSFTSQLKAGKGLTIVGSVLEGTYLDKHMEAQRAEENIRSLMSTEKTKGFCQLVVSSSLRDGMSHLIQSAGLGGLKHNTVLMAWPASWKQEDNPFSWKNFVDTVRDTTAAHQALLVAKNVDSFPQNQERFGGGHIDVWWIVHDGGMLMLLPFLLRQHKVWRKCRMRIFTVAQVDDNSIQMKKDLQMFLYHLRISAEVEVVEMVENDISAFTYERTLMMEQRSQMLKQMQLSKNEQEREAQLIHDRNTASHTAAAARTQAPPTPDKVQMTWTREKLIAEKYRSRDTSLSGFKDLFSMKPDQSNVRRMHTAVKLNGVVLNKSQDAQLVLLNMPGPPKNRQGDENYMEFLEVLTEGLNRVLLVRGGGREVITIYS
Description: Tl+ flux assay, HEK-293 cells expressing KCC4. The assay is classed as cell-based. To be noted: read-out: concentration at which effects on KCC4 were seen (EC50, FIG. 1G). Here is the method:
FLIPR TI Flux assay. HEK-293 cells were washed with HBSS, and then incubated with loading buffer containing TI sensitive fluorescent dye (https://www.moleculardevices.com), 20 μM bumetanide 20 μM ouabain and 2.5 mM probenecid for 1 h at room temperature (RT) under control conditions or with drugs in the dark using a FlexStation 3 microplate reader (Molecular Devices) and imaged […] for 30 min. Stimulus buffer was added containing 5 mM K^+/0.5 mM Tl^+ and cells were imaged every 1.5 over a 190 second time course The initial rate Tl^+ uptake (Relative Fluorescence Units (RFU) per second) was determined following addition of the stimulus buffer as outlined previously (Conway et al., 2017, supra) (Lee et al., 2022, supra).
Several studies have shown that the activity and plasma membrane accumulation of KCC2 is potentiated via phosphorylation of S940, a process mediated by the activity of protein kinase C and protein phosphatase 1 (Lee et al, 2011, supra; Lee et al., J Biol Chem 282, 29777-29784 (2007); Moore et al., Proc. Natl. Acad. Sci. U.S.A 115, 10166-10171 (2018); Moore et al., Trends Neurosci. 40, 555-571 (2017); Silayeva et al., Proc. Natl. Acad. Sci. U.S.A. 112, 3523-3528 (2015)). […] Compared to KCC2, effects on KCC3, KCC4, and NKCC1 were only seen at concentrations more than 35-fold that of KCC2 (>100 μM) (FIG. 1G).

Take `C[C@@H]1CN(c2nc3c(c(Nc4ccc(C5CCCCC5)cc4)n2)COC3)CCO1` [Compound A, (R)—N-(4-cyclohexylphenyl)-2-(2-methylmorpholino)-5,7-dihydrofuro[3,4-d]pyrimidin-4-amine]: the “activity of kinase panel” value in assay [1] was “did not modify the activity”. In assay [2] (15 min, calculated from EGABA), the “reduction in Cl−” value was 2.2 ± 0.6 mM. Further, in assay [2] (from −75±3.1 at 0 min, bumetanide and TTX present), the “EGABA at 15 min” value is −85.1±4.2 mV. Further, the EC50 at KCC4 was more than 100 µM.
